According to patent US20090239884A1, “Methods of Treating Inflammation” (priority 2006, published 2009):
Entries after “also recorded” stand apart in the source; their conditions may differ. Read-outs that look alike come from different tables or passages of the source. Values belong to the compound of their own block, whether it stands above or below them.

Experiments:
PDE1 = settings: read-out: Potency (IC50) PDE1; cited from earlier work
bEnd.3 endothelial cells = experiment: qRT-PCR gene expression in TNF-α activated bEnd.3 endothelial cells; assay type: cell-based, mouse; settings: 45 minutes, DP 100 μM, dibutryl cAMP 500 μM
Description: Quantitative real-time RT-PCR analysis. 10 ng cDNA, or 2 μl cDNA for LCM studies, was amplified by qRT-PCR in a 25 μl reaction using SYBR Green PCR Master Mix (Applied Biosystems, Foster City, Calif.). Primers were designed using Primer Express software v3.0 and primer efficiency verified by slope analysis to be 100%±2.5%. qRT-PCR was performed using an ABI 7500 fast system and data analyzed using the Δ^ct method (SDS software v3.0). Amplicon sizes were approximately 100 bp.
(§1) Cell treatment. Confluent bEnd.3 monolayers were incubated with 200 ng/ml TNF-α (Peprotech, Rocky Hill, N.J.) at 37° c. for 2 hours. […] Christoff Zitt and Armin Hatzelmann (Altana Pharma, Konstanz, Germany). Con A-activated splenocytes or CD4^+CD25^− T cells activated with plate-bound anti-CD3 mAb were treated with the same reagents for 20, 45, or 90 minutes.
In FIG. 23A, bEnd.3 endothelial cells were activated for 2 hours with TNF-α (200 ng/ml) and (A) DP (100 μM) or vehicle (0.1% DMSO) for the final 45 minutes. PDE gene expression was then analyzed by qRT-PCR and the data presented as the mean+SEM of 3 independent experiments assayed in triplicate (*p<0.05, **p<0.001; unpaired t-test).
The data are shown as a mean±SEM percentage of vehicle control and represent 3 independent experiments assayed in triplicate (*p<0.05, * *p<0.001; unpaired t-test).

[1] = test system: Con A-activated splenocytes on TNF-α activated bEnd.3 endothelial cells; experiment: T cell-endothelial cell adhesion assay (Example 13); assay type: cell-based, mouse; settings: for ability to reduce adhesion of activated T cells to endothelial cells: IBMX 300 μM, piclamilast 1 μM, motapizone 1 μM; for reversal of the inhibitory effect of DP on T cell adhesion: DP 100 μM with adenosine deaminase 1 U/ml or CXCL12 250 ng/ml
Description: as §1
Adhesion assays. Adhesion assays were performed in 24-well plates with a confluent layer of bEnd.3 cells. Splenocytes or CD4^+CD25^− T cells were labeled with 5 μM Calcein AM (Molecular Probes, Eugene, Oreg.) and treated as described above. 7×10^5 pretreated splenocytes or CD4^+CD25^− T cells per well were incubated on bEnd.3 cells in RPMI media. After 30 minutes at 37° C., non-adherent cells were removed by washing with D-PBS. For analysis, 7×10^5 Calcein AM labeled splenocytes or CD4^+CD25^− T cells were used as positive controls. Fluorescence was read in a Victor 3v microplate reader (Perkin Elmer, Waltham, Mass.) with a fluorescein filter set. The percentage of adherent T cells, i.e. labeled cells resistant to detachment, was calculated as total fluorescence of well divided by fluorescence of 7×10^5 Calcein AM labeled cells multiplied by 100.
In FIGS. 20A-20B, splenocytes from C57BL/6 mice were activated with Con A (3 μg/ml) for 48 hours followed by a 45 minute incubation with (A) IBMX (300 μM), piclamilast (Picl, 1 μM) or DP (100 μM), (B) dibutryl cAMP (Db-cAMP, 500 μM) or DP in the presence or absence of adenosine deaminase (AD, 1 U/ml) or vehicle (0.1% DMSO). bEnd.3 endothelial cells were activated for 2 hours with TNF-α (200 ng/ml) and incubated with the same reagents for the final 45 minutes before splenocytes were added to the bEnd.3 cells for the adhesion assay. The data are presented as the mean±SEM percentage of splenocytes which were resistant to detachment. Results are representative of at least three independent experiments run in triplicate (*p<0.05, **p<0.001; one way ANOVA followed by Bonferroni t-test).

[2] = test system: Con A-stimulated mouse splenocytes; experiment: transwell chemotaxis assay in response to CXCL12, Con A-stimulated splenocytes; assay type: cell-based; settings: for effect on CXCL12-induced migration: forskolin 25 μM, motapizone 10 μM, piclamilast 1 μM
Description: (§2) Isolation of murine splenocytes. Splenocytes were isolated from 6-8 week old C57BL/6 mice obtained from Jackson Laboratories (Bar Harbor, Me.). Spleens were removed and a single-cell suspension prepared using 40 μm cell strainers (Fisher Scientific). Cells were washed with RPMI 1640 medium supplemented with 5% fetal bovine serum, 2 mM L-glutamine, 100 U/ml penicillin and […] (all from GIBCO). Red blood cells were lysed using standard lysis buffer (0.15M NH4Cl, 10mM KHCO3, 0.1 mM EDTA PH 7.4). Cells were then washed and used in chemotaxis assays either as unstimulated cells or after stimulation with Con A ([…]) as indicated.
(§3) Preparation of Test Reagents. […] This concentration of DMSO had no effect on migration of splenocytes in the presence or absence of CXCL12. CXCL12 was prepared as a 100 μg/ml stock solution in PBS+0.1% BSA, Con A was prepared as a stock of 2.5 mg/ml in PBS, and dibutyryl cAMP and Rp-cAMPS were prepared as 50 mM stock solutions in water, and these reagents were diluted directly into the chemotaxis assays.
(§4) Chemotaxis Assay. Chemotaxis assays were done in 24-well transwell plates with a pore size of 5 μm (Costar, Corning). Splenocytes were placed in medium at a concentration of 3×10^6 cells/ml. Where test agents were used, splenocytes were pretreated with the agent or vehicle for 45 to 60 min, following which 100 μl of the splenocyte suspension was placed into the upper chamber of transwell plates, and the lower chamber was filled with 600 μl of medium. When added to induce migration, CXCL12 (250 ng/ml) was added to the lower chamber only. Other test reagents were added as indicated to both the upper and lower chambers. After 4 hours of incubation at 37° C. in 5% CO2, transwell inserts were gently removed and the number of cells that migrated into the lower chamber were counted by withdrawing 500 μl of lower chamber medium, mixing it with 10 ml of buffer and counting the cells on a Coulter Counter (Beckman Coulter Z series). Where results are expressed as % of CXCL12-stimulated migration, this was calculated as follows: (cells migrated in presence of CXCL12 and test reagent—cells migrated in medium alone)/(cells migrated in presence of CXCL12-cells migrated in medium alone)×100. Experimental points for all chemotaxis assays were performed in triplicate.
(§5) Splenocytes isolated from mice were assayed for migration in response to CXCL12 (250 ng/ml), either directly (unstimulated) or following 48 hr of incubation with 3 μg/ml Con A (stimulated), as described in Methods. To test for effects of dibutyryl cAMP, cells were pretreated with dibutyryl cAMP (500 μM) for 45-60 min prior to beginning the chemotaxis assay, and the assays were conducted with dibutyryl cAMP (db-cAMP) present (500 μM) in both the upper and lower chambers of the transwell plates. Data plotted are derived from a single experiment performed in triplicate. *p<0.001; **p<0.02.

[3] = test system: unstimulated mouse splenocytes; experiment: transwell chemotaxis assay in response to CXCL12, unstimulated splenocytes; assay type: cell-based
Description: as §2, §3, §4, §5

PDE4 [4] = settings: cited from earlier work
PDE4 [5] = experiment: PDE4 inhibition; assay type: biochemical
[6] = test system: Con A activated splenocytes on bEND.3 brain derived endothelial cell monolayers; experiment: adhesion of Con A activated splenocytes to bEND.3 monolayer (Example 4); assay type: cell-based, mouse; settings: piclamilast 1 μM; static assay
Description: The hypothesis was first tested using a series of experiments determining T cell adhesion to vascular endothelial cells. Confluent bEND.3 brain derived endothelial cell monolayers were pretreated with 100 ng/ml TNF-α. […] Splenocytes were allowed to adhere for 30 min at 37° C. without shaking after which nonadherent cells were removed by washing the wells 4× with prewarmed D-PBS. For analysis, 7×10^5 calcein AM labeled cells were added to an empty well as a representation of maximal possible fluorescence. The fluorescence of each well was read by a Victor 3v microplate reader with a fluorescein filter set. Background fluorescence (medium only) was subtracted from each well and percentage of adherent cells that is resistant to detachment under the conditions of washing the wells was calculated as fluorescence of well in percent of maximal fluorescence (without washing).

PDE3 = settings: read-out: Potency (IC50) PDE3; cited from earlier work
[7] = test system: peripheral blood mononuclear cells; settings: cited from earlier work
T cells = settings: cited from earlier work
[8] = Mus musculus, Splenocyte, 4 h, read-out: inhibition of CXCL12-induced migration

Compound: CCOC(=O)C1=C[C@]2(CC)CCCN3CCc4c(n1c1ccccc41)[C@@H]32 [Vinpocetine]
- IC50 (PDE1): 5000 to 25000 nM

Compound: CCCC(=O)Nc1ncnc2c1ncn2[C@@H]1O[C@@H]2COP(=O)(O)O[C@H]2[C@H]1OC(=O)CCC [dibutyryl cAMP]
- reduction of ICAM-1 mRNA expression (bEnd.3 endothelial cells): 42%
- increase of claudin-5 gene expression (bEnd.3 endothelial cells; 8-bromo-cAMP 500 μM): 70%
- reduction of CXCL12 gene expression (bEnd.3 endothelial cells; 8-bromo-cAMP 500 μM): 48%
- reduction of VCAM-1 gene expression (bEnd.3 endothelial cells; 8-bromo-cAMP 500 μM): 33%
- reduction of adhesion of activated T cells to bEnd.3 endothelial cells ([1]; 45 minute incubation, DP 100 μM, dibutryl cAMP 500 μM, adenosine deaminase 1 U/ml): 81%
- inhibition at 500 µM [2, 8]: 29%
- inhibition at 500 µM [3, 8]: 54%

Compound: C=C[C@@]1(C)CC(=O)[C@]2(O)[C@@]3(C)[C@@H](O)CCC(C)(C)[C@@H]3[C@H](O)[C@H](OC(C)=O)[C@@]2(C)O1 [forskolin]
- effect on CXCL12-induced migration ([2]; Con A-stimulated splenocytes): no effect at all
- inhibition at 25 µM [3, 8]: 31%

- Ki (PDE4 [5]; purified PDE4): ~0.3 nM
Compound: COc1ccc(C(=O)Nc2c(Cl)cncc2Cl)cc1OC1CCCC1 [piclamilast]
- ability to reduce adhesion of activated T cells to endothelial cells ([1]; 45 minute incubation): no short term suppressive effect
- effect on CXCL12-induced migration ([2]; Con A-stimulated splenocytes): no statistically significant effect; also recorded: not inhibited at all
- IC50 (PDE4 [4]; read-out: IC50, PDE4): 1 nM
- concentration margin before any other PDE gene family is inhibited (PDE4 [5]; relative to PDE4 inhibition): more than 5 orders of magnitude
- effect on adhesion of Con A-stimulated splenocytes to endothelial cells [6]: not inhibited at all

Compound: CN(C(=O)CCCOc1ccc2[nH]c(=O)ccc2c1)C1CCCCC1 [Cilostamide]
- IC50 (PDE3): 5 nM

Compound: COc1ccc(C2CNC(=O)C2)cc1OC1CCCC1 (centres unmarked) [rolipram]
- lipopolysaccharide-stimulated release of TNF-α [7]: inhibit
- adhesion of T cells (T cells; 8-48 hour treatment): blocked
- adhesion to vascular ligands or endothelial cells (T cells; exposure for a short period of 4 hours): no effect
- T cell adhesion (T cells; until after 8 hours of exposure): did not significantly inhibit

Compound: adenosine deaminase
- reversal of the inhibitory effect of DP on T cell adhesion [1]: did not reverse
- effect by itself on splenocyte migration ([2]; adenosine deaminase 1 U/ml, stimulated splenocytes): no effect

Compound: Nc1ncnc2c1ncn2[C@@H]1O[C@@H]2COP(O)(=S)O[C@H]2[C@H]1O (single isomer, unassigned) [Rp-cAMPS, 3′,5′-cyclic monophosphorothioate, Rp-isomer]
- reversal of dipyridamole inhibition of CXCL12-stimulated chemotaxis ([2]; Rp-cAMPS 1 mM with dipyridamole 100 μM): reversed; also recorded: reversal

Compound: CC1CC(=O)NN=C1c1cc(-n2ccnc2)cs1 (centres unmarked) [motapizone]
- ability to reduce adhesion of activated T cells to endothelial cells ([1]; 45 minute incubation): no inhibitory effect
- effect on CXCL12-induced migration ([2]; Con A-stimulated splenocytes): no statistically significant effect; also recorded: not inhibited at all

Compound: CXCL12: Recombinant mouse CXCL12, chemokine, chemoattractant for leukocytes
- reversal of the inhibitory effect of DP on T cell adhesion [1]: did not reverse
- increase in number of migrating splenocytes ([2]; Con A-stimulated splenocytes, CXCL12 250 ng/ml in lower chamber, 4 hr): 2.5 fold
- increase in number of migrating splenocytes ([3]; unstimulated splenocytes, CXCL12 250 ng/ml in lower chamber, 4 hr): 6.2 fold
- effect on adhesion of Con A-stimulated splenocytes to endothelial cells [6]: did not increase
